Reference: patent US8383637B2, “2-amino-quinazoline derivatives useful as inhibitors of β-secretase (BACE)” (Jansssen Pharmaceutica N.V., priority 2004, dated 2013)

Each compound was assayed against T1, β-secretase(BACE) (Homo sapiens, UniProt P56817) (assay: BACE Assay-1 (MCA-substrate, IC50)). Conditions: procedure of Example 158; read-out: IC50 μM (158).
T1 construct: purchased Panvera
Assay type: biochemical
Experimental: The following standards are reagents were used in this assay: Sodium Citrate trisodium salt dihydrate (Sigma), Citric Acid monohydrate (Merck), PEG8000 (Sigma), MCA-substrate (Bachem), β-secretase (BACE) (Panvera), 96-well plate zwart (Costar (Elscolab)), StatVal (Bachem).
The following standard assay buffer solution was prepared and used in this assay: 0.05 M, pH 5.0 mixture of sodium citrate trisodium salt dihydrate (9.56 g), citric acid monohydrate (3.68 g) and PEG8000 (0.50 g).
The MCA-substrate stock solution was prepared by mixing 10 mg MCA-substrate with 5 mL DMSO for a final solution concentration of 2.0 mg/mL. The substrate work solution was prepared by mixing 0.1 mL substrate in 1.90 mL assay buffer for a final concentration of 0.05 mM. The β-secretase (BACE) work solution was prepared by mixing 8 μL BACE in 2 mL assay buffer for a final concentration of 10 μg/mL.
The screen procedure for this assay was as follows. 60 μL of assay buffer was pippeted into each well of a 96-well plate. To each well was then pipetted 1 μL of test compound at the selected concentration. To each well was then added 20 μL of the β-secretase work solution and 20 μL of the MCA-substrate stock solution.
The procedure for the blank was as follows. 80 μL of assay buffer was pipetted into each well to be used as a blank control. To each well was then added 1 μL of DMSO and 20 μL of MCA-substrate solution in each well.
The procedure for the positive control was as follows. 60 μL of assay buffer was pipetted into each well to be used as a positive control. To each well was then added 1 μL of DMSO, 20 μL of BACE work solution and 20 μL of MCA-substrate stock solution.
For test compounds, measured at multiple concentrations, the measured T0 and T60 values were used to calculate an IC50 value using Graphpad Software (or PIR).

T1 sequence (P56817 46-501): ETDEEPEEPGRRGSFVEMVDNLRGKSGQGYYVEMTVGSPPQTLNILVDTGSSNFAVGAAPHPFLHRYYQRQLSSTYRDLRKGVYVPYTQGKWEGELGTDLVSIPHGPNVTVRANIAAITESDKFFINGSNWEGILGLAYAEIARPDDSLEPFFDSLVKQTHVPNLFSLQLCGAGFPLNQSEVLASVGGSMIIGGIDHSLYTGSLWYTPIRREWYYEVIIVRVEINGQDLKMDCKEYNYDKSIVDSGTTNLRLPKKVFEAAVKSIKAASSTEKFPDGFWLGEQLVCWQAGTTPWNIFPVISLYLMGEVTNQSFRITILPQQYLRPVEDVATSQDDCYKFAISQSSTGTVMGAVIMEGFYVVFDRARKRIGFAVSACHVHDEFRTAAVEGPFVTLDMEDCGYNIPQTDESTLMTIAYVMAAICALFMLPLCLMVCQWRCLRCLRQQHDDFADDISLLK

Compound	IC50
COCCN1Cc2cc(C(=O)c3ccccc3)ccc2N=C1N [Compound 18]	91 µM
CCCN1Cc2cc(Oc3cccc(NS(=O)(=O)c4ccsc4)c3)ccc2N=C1N [Compound 240]	0.89 µM
CCCN1Cc2cc(Oc3cccc(NS(=O)(=O)c4ccsc4C(=O)OC)c3)ccc2N=C1N [Compound 276]	> 10 µM
CCCN1Cc2cc(Oc3cccc(NS(=O)(=O)c4cccc5c(N(C)C)cccc45)c3)ccc2N=C1N [Compound 253]	> 10 µM
NC1=Nc2ccc(Oc3cccc(NC(=O)OCc4ccccc4)c3)cc2CN1CCCCC(=O)N(C1CCCCC1)C1CCCCC1 [Compound 75]	0.66 µM
CN(C(=O)CCCCN1Cc2cc(C(=O)c3ccccc3)ccc2N=C1N)C1CCCc2ccccc21 (stereo not shown) [Compound 54]	2.3 µM
CCCN1Cc2cc(Oc3cccc(NS(=O)(=O)c4ccc5c(c4)OCCO5)c3)ccc2N=C1N [Compound 275]	> 10 µM
CCCN1Cc2cc(Oc3cccc(NS(=O)(=O)c4cccc5ccccc45)c3)ccc2N=C1N [Compound 274]	> 10 µM
CN(C(=O)CCCCN1Cc2cc(C(=O)c3ccccc3)ccc2N=C1N)C12CC3CC(CC(C3)C1)C2 [Compound 48]	4 µM
CCCN1Cc2cc(Oc3cccc(NS(=O)(=O)c4cc(OC)ccc4OC)c3)ccc2N=C1N [Compound 248]	6.9 µM
CC(C)(C)OC(=O)N1CCC(CN2Cc3cc(Oc4cccc(NS(=O)(=O)c5ccccc5)c4)ccc3N=C2N)CC1 [Compound 384]	0.13 µM
CCCN1Cc2cc(Oc3cccc(NS(=O)(=O)c4csc5ccccc45)c3)ccc2N=C1N [Compound 245]	0.17 µM
CN(C(=O)CCN1Cc2cc(C(=O)c3ccccc3)ccc2N=C1N)C1CCCCCC1 [Compound 4]	2.5 µM
CCOC(=O)N1CCC(N2Cc3cc(Oc4cccc(NS(=O)(=O)c5ccccc5)c4)ccc3N=C2N)CC1 [Compound 376]	0.17 µM
CCCN1Cc2cc(Sc3cccc(NS(=O)(=O)c4c(C)cc(C)cc4C)c3)ccc2N=C1N [Compound 497]	0.011 µM
CN(C(=O)CCCCN1Cc2cc(Oc3cccc(NC(=O)OCc4ccccc4)c3)ccc2N=C1N)C1CCCCC1 [Compound 133]	0.15 µM
CCCN1Cc2cc(Oc3cccc(NS(=O)(=O)c4ccc(C)cc4OC)c3)ccc2N=C1N [Compound 273]	0.17 µM
CCCN1Cc2cc(-c3ccccc3CCNS(=O)(=O)c3ccccc3)ccc2N=C1N [Compound 385, N-{2-[2-(2-Amino-3-propyl-3,4-dihydro-quinazolin-6-yl)-phenyl]-ethyl}-benzenesulfonamide]	0.28 µM
CN(C(=O)CCN1Cc2cc(C(=O)c3ccc(F)cc3)ccc2N=C1N)C1CCCCC1 [Compound 2]	26 µM
CN(CCc1ccccc1)C(=O)CCN1Cc2cc(C(=O)c3ccccc3)ccc2N=C1N [Compound 40]	9.8 µM
CCCN1Cc2cc(Oc3cccc(NS(=O)(=O)c4ccc(-c5csc(C)n5)s4)c3)ccc2N=C1N [Compound 254]	> 10 µM
CC(C)N(C)C(=O)CCN1Cc2cc(C(=O)c3ccccc3)ccc2N=C1N [Compound 22]	12 µM
NC1=Nc2ccc(Oc3cccc(NS(=O)(=O)c4ccccc4)c3)cc2CN1CCCCO [Compound 126]	0.24 µM

Compound	IC50
CCCN1Cc2cc(Oc3cccc(NS(=O)(=O)C(C)C)c3)ccc2N=C1N [Compound 238]	8.9 µM
CN(C(=O)CCN1Cc2cc(C(=O)c3ccccc3)ccc2N=C1N)C1CCCC1 [Compound 24]	1.8 µM
CN(Cc1cccc2ccccc12)C(=O)CCN1Cc2cc(C(=O)c3ccccc3)ccc2N=C1N [Compound 42]	15 µM
NC1=Nc2ccc(C(=O)c3ccccc3)cc2CN1CCCCC(=O)NC1CCCCC1 [Compound 31]	2.3 µM
CN(C(=O)CCN1Cc2cc(C(=O)c3ccccc3)ccc2N=C1N)C12CC3CC(CC(C3)C1)C2 [Compound 41]	5.1 µM
CCCN1Cc2cc(-c3cccc(NS(=O)(=O)c4ccccc4)c3)ccc2N=C1N [Compound 397]	3.98 µM
CCCN1Cc2cc(Oc3cccc(NS(=O)(=O)c4cc(S(=O)(=O)c5ccccc5)cs4)c3)ccc2N=C1N [Compound 285]	> 10 µM
CCCN1Cc2cc(Oc3cccc(NS(=O)(=O)c4cc(C(=O)O)ccc4OC)c3)ccc2N=C1N [Compound 279]	> 10 µM
CCCN1Cc2cc(Oc3cccc(NS(=O)(=O)c4ccc(OC)c(OC)c4)c3)ccc2N=C1N [Compound 249]	5.2 µM
CN(C(=O)CCN1Cc2cc(C(=O)c3ccc(F)cc3)ccc2N=C1N)C1CCCC1 [Compound 25]	5.5 µM
CCCN1Cc2cc(Oc3cccc(NCc4c(OC)cccc4OC)c3)ccc2N=C1N [Compound 501]	3.4 µM
COc1cc(C)ccc1S(=O)(=O)Nc1cccc(Oc2ccc3c(c2)CN(CCCCCO)C(N)=N3)c1 [Compound 355]	2.6 µM
CCCN1Cc2cc(Oc3cccc(NS(=O)(=O)c4ccc5ccccc5c4)c3)ccc2N=C1N [Compound 244]	2.1 µM
Cc1cc(C)c(S(=O)(=O)Nc2cccc(Oc3ccc4c(c3)CN(CCCCCO)C(N)=N4)c2)c(C)c1 [Compound 383]	0.65 µM
CCCN1Cc2cc(Oc3cccc(NS(=O)(=O)c4ccc(OC(F)(F)F)cc4)c3)ccc2N=C1N [Compound 283]	> 10 µM
CCCN1Cc2cc(Oc3cccc(NS(=O)(=O)c4ccccc4C(F)(F)F)c3)ccc2N=C1N [Compound 277]	0.7 µM
CCOC(=O)N1CCC(N2Cc3cc(Oc4cccc(NS(=O)(=O)c5ccc(C)cc5OC)c4)ccc3N=C2N)CC1 [Compound 353]	0.35 µM
CCCN1Cc2cc(Oc3cccc(NC(=O)c4ccccc4)c3)ccc2N=C1N [Compound 60]	5.6 µM
CCCN1Cc2cc(Oc3cccc(NS(=O)(=O)c4c(C)cc(C)cc4C)c3)ccc2N=C1N [Compound 243]	0.033 µM
CN(C(=O)CCN1Cc2ccccc2N=C1N)c1ccccc1 [Compound 800]	17 µM
CCN(C(=O)CCN1Cc2cc(C(=O)c3ccccc3)ccc2N=C1N)C1CCCCC1 [Compound 3]	4 µM
CCN(C(=O)CCN1Cc2cc(C(=O)c3ccc(F)cc3)ccc2N=C1N)C1CCCCC1 [Compound 6]	9.1 µM
CN(C(=O)CCN1Cc2ccc(C(=O)c3ccccc3)cc2N=C1N)C1CCCCC1 [Compound 35]	33 µM

Compound	IC50
CCCN1Cc2cc(Oc3cccc(NS(=O)(=O)c4ccc(-c5ccccc5)cc4)c3)ccc2N=C1N [Compound 280]	11 µM
CCCN1Cc2cc(Oc3cccc(NS(=O)(=O)c4cccc(Br)c4)c3)ccc2N=C1N [Compound 282]	> 10 µM
CCCN1Cc2cc(Oc3cccc(CNCCc4ccccc4)c3)ccc2N=C1N [Compound 431]	0.8 µM
CN(C(=O)CCN1Cc2cc(C(O)c3ccccc3)ccc2N=C1N)C1CCCCC1 (stereo not shown) [Compound 32, 3-[2-Amino-6-(hydroxy-phenyl-methyl)-4H-quinazolin-3-yl]-N-cyclohexyl-N-methyl-propionamide]	14 µM
CCCN1Cc2cc(Oc3cccc(NS(=O)(=O)c4ccc(Br)s4)c3)ccc2N=C1N [Compound 284]	0.87 µM
CCCN1Cc2cc(Oc3cccc(NCc4ccccc4)c3)ccc2N=C1N [Compound 507]	0.081 µM
CCCN1Cc2cc(Oc3cccc(NS(=O)(=O)c4ccc(-c5ccno5)s4)c3)ccc2N=C1N [Compound 278]	> 10 µM
CCCN1Cc2cc(Oc3cccc(NS(=O)(=O)Cc4ccccc4)c3)ccc2N=C1N [Compound 269]	0.35 µM
CCCN1Cc2cc(Oc3cccc(NCc4ccc(OC)cc4)c3)ccc2N=C1N [Compound 502]	0.18 µM
CCCN1Cc2cc(Oc3cccc(C(=O)NCc4c(C)cc(C)cc4C)c3)ccc2N=C1N [Compound 423]	5.8 µM
NC1=Nc2ccc(C(=O)c3ccccc3)cc2CN1CCC(=O)N(C1CCCCC1)C1CCCCC1 [Compound 39]	1.3 µM
CN(C(=O)CCCCN1Cc2cc(Oc3cccc(NCC4CCCCC4)c3)ccc2N=C1N)C1CCCCC1 [Compound 96]	0.78 µM
NC1=Nc2ccc(Oc3cccc(NCC4CCCCC4)c3)cc2CN1CCCCO [Compound 95]	0.31 µM
CCCCS(=O)(=O)Nc1cccc(Oc2ccc3c(c2)CN(CCC)C(N)=N3)c1 [Compound 239]	0.35 µM
CN(C(=O)CCN1Cc2cc(C(=O)c3ccccc3)ccc2N=C1N)c1ccccc1 [Compound 13]	16 µM
CCCN1Cc2cc(Oc3cccc(NCc4c(C)cc(C)cc4C)c3)ccc2N=C1N [Compound 500]	0.16 µM
CCCN1Cc2cc(Oc3cccc(NS(=O)(=O)c4cccc(OC(F)(F)F)c4)c3)ccc2N=C1N [Compound 252]	1 µM
CC(C)(C)OC(=O)NCCN1Cc2cc(Oc3cccc(NS(=O)(=O)c4ccccc4)c3)ccc2N=C1N [Compound 394]	0.87 µM
CCCN1Cc2cc(OCc3cccc(NS(=O)(=O)c4ccccc4)c3)ccc2N=C1N [Compound 203]	4.7 µM
CN(C(=O)CCN1Cc2cc(C(=O)c3ccc(F)cc3)ccc2N=C1N)C1CCCCCC1 [Compound 5]	5.1 µM
CCCN1Cc2cc(Oc3cccc(NS(=O)(=O)c4ccccc4S(C)(=O)=O)c3)ccc2N=C1N [Compound 250]	> 10 µM
